This is an account of results in PubChem BioAssay AID2060332 (Molecular Pharmacology Branch, DTP, NCI, 2025).

Several values for one entry are separate records, joined by “and”; a condition that tells them apart may be missing. Equal values may be shown once.

For the assay, the system named is LG0567-F671-PDC multi-cell spheroid viability. Put plainly: Anticancer human tumor LG0567-F671-PDC patient-derived lung adenocarcinoma cell line growth inhibition [IpAb]. As to conditions: for viability, T/C: stronger effect = lower value. An outline of the steps:
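Combinations with ipatasertib or abemaciclib were tested on tumour spheroids holding HUVEC (25%) and MSC (15%) alongside 60% malignant cells. Top concentration was at or near clinical Cmax (10 microM if undefined), descending in half-log steps.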
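Further: viability read after 7 days of drug exposure.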
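Wherever viability, T/C is given: 100% = DMSO vehicle control luminescence.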

As a reminder, the IC50 is the concentration needed to halve the response being measured. As usually defined, the viability, T/C is the ratio of treated to control. Turning to `Cn1cnc2c(F)c(Nc3ccc(Br)cc3Cl)c(C(=O)NOCCO)cc21` + CCN1CCN(Cc2ccc(Nc3ncc(F)c(-c4cc(F)c5nc(C)n(C(C)C)c5c4)n3)nc2)CC1, the IC50 reads like this: (curve of first compound, second compound 0.01 µM) 0.0191 µM; (curve of first compound, second compound 0.0316 µM) 0.0119 µM; (curve of first compound, second compound 0.1 µM) under 0.00949 µM; (curve of first compound, second compound 0.316 µM) under 0.00949 µM; (curve of first compound, second compound 1 µM) under 0.00949 µM. Also, the viability, T/C is, setting by setting: (second compound 0.01 µM, first compound 0.00949 µM) 55%; (second compound 0.01 µM, first compound 0.03 µM) 48%; (second compound 0.01 µM, first compound 0.0949 µM) 28.8%; (second compound 0.01 µM, first compound 0.3 µM) 22.5%; (second compound 0.01 µM, first compound 0.949 µM) 19.9%; (second compound 0.01 µM, first compound 3 µM) 13.4%. Also, the viability, T/C is 53.5% (second compound 0.0316 µM, first compound 0.00949 µM); 36.4% (second compound 0.0316 µM, first compound 0.03 µM); 27.9% (second compound 0.0316 µM, first compound 0.0949 µM); 17.3% (second compound 0.0316 µM, first compound 0.3 µM); 20.2% (second compound 0.0316 µM, first compound 0.949 µM); 13.5% (second compound 0.0316 µM, first compound 3 µM). Besides, the viability, T/C is, setting by setting: (second compound 0.1 µM, first compound 0.00949 µM) 47.5%; (second compound 0.1 µM, first compound 0.03 µM) 38.5%; (second compound 0.1 µM, first compound 0.0949 µM) 28%; (second compound 0.1 µM, first compound 0.3 µM) 17.4%; (second compound 0.1 µM, first compound 0.949 µM) 17%; (second compound 0.1 µM, first compound 3 µM) 10.6%. Further, the viability, T/C (second compound 0.316 µM, first compound 0.00949 µM) was 48.8%; the viability, T/C (second compound 0.316 µM, first compound 0.03 µM) is 29.9%; the viability, T/C (second compound 0.316 µM, first compound 0.0949 µM) was 33.6%; the viability, T/C (second compound 0.316 µM, first compound 0.3 µM) was 24.7%; the viability, T/C (second compound 0.316 µM, first compound 0.949 µM) is 17.4%; the viability, T/C (second compound 0.316 µM, first compound 3 µM) is 11.4%. For the same compound, the viability, T/C by setting is: (second compound 1 µM, first compound 0.00949 µM) 45%; (second compound 1 µM, first compound 0.03 µM) 35.2%; (second compound 1 µM, first compound 0.0949 µM) 29.6%; (second compound 1 µM, first compound 0.3 µM) 27.5%; (second compound 1 µM, first compound 0.949 µM) 18.6%; (second compound 1 µM, first compound 3 µM) 11.3%.
Consider `Cc1nc(NC(=O)N2CCCC2C(N)=O)sc1-c1ccnc(C(C)(C)C(F)(F)F)c1` (stereo not drawn), for which the viability, T/C (compound 0.0316 µM) is 85.2%; the viability, T/C (compound 0.1 µM) was 79.3% and 90.2%; the viability, T/C (compound 0.316 µM) is 59.3% and 74%; the viability, T/C (compound 1 µM) is 44.5% and 52.8%; the viability, T/C (compound 3.16 µM) was 66.8% and 49.1%; the viability, T/C (compound 10 µM) is 50.2% and 46.2%. Besides, the IC50 (curve of compound) was > 10 µM and 1.8 µM.
As for `CCN1CCN(Cc2ccc(Nc3ncc(F)c(-c4cc(F)c5nc(C)n(C(C)C)c5c4)n3)nc2)CC1`, the IC50 (compound alone, run of 06/01/2021) is over 1 µM.
